Test results from US10047087B2, “Substituted pyrazolo[1,5-A] pyridine as tropomyosin receptor kinase (TrK) inhibitors” (Dr. Reddy's Laboratories Ltd., priority 2011, dated 2018).
Like-named read-outs stand apart in the source and are kept apart here.

How the values were obtained:
TrkA kinase = target: T1, TrkA kinase (Homo sapiens, UniProt P04629); assay: In vitro TrkA inhibitory activity using TR-FRET assay; type: biochemical; conditions: 5 ng TrkA, 500 μM ATP
T1 construct: purchased Upstate, USA
T1 sequence (P04629 33-796): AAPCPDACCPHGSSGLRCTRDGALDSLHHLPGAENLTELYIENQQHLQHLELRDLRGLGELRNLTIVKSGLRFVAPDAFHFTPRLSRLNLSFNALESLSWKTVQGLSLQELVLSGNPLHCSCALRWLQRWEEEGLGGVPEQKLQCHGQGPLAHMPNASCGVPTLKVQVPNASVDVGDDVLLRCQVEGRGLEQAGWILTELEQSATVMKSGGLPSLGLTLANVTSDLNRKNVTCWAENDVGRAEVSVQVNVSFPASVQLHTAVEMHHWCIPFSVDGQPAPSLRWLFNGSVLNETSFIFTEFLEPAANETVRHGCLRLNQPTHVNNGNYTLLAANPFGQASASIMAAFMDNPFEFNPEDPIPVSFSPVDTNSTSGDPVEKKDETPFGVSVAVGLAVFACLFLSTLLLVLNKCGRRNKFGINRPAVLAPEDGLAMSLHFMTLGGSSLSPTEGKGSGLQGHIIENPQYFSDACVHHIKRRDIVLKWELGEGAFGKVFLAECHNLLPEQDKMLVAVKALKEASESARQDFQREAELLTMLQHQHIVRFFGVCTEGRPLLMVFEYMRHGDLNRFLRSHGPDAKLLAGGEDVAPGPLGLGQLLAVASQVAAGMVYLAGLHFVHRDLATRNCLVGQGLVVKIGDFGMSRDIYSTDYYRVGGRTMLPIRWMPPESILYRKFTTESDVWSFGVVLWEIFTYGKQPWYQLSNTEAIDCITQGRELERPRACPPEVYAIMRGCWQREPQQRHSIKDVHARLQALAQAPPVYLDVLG
Summary of the method: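 Kinase (5 ng) was preincubated with compound for 30 min at 20-35° C before adding 40 nM ULight poly GT and 500 μM ATP; stopped with EDTA after 30 min. Eu-anti-phosphotyrosine antibody (0.5 nM) was read at 615/665 nm with 1% DMSO final. Compounds showing >25% inhibition at 1 μM went to sigmoidal dose-response IC50 fitting.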

[1] = Metabolic stability using Human Liver Microsomes (HLM); type: in vitro ADME; conditions: pooled human liver microsomes, compound 1 μM, 0.3 mg/ml microsomal protein, 1 mM NADPH
Procedure: Stability Protocol: Metabolic Stability Using Rat Liver Microsomes (RLM) and Human Liver Microsomes (HLM).
This assay was performed using pooled male rat liver microsomes (In-house prepared as per SOP), Pooled Human liver microsomes (XENOTECH; Batch No— H0630-1110189)). The 100 μl reaction contains the compounds at 1 μM, 0.3 mg/ml microsomal protein and both the co-factors (1 mM NADPH) in buffer and the mixture was incubated at different time points (0, 15, 30, 45, 60, & 90 minutes). The reaction was stopped by the addition of equal volume of acetonitrile containing internal standard (Telmesartin). The precipitated protein was removed by centrifugation and the supernatant were analyzed LC/MS-MS method. The percent parent compound remaining was quantified by analysis using following formula (% parent compound remaining=(peak area at Time x/peak area at T0)×100. The intrinsic clearance was calculated using the following formula. CLint,app: (0.693/in vitro t½)(incubation volume/mg of microsomal protein)(45 mg microsomal protein/gram of liver)(20^a g of liver/kg body weight) • a: 20 and 45 g of liver/kg of body weight were used for human and rat, respectively (Lu C et al., DMD, 2006). Bio-analysis: It was performed in Multiple Reaction Monitoring mode (negative mode) using Applied Biosystems API 4000 coupled to Agilent Technologies 1100 series HPLC on a reverse phase column (Zorbax Eclipse XDB C18, 50×4.6 mm, 5 μm). Celecoxib was used as internal standard both in in-vitro and in-vivo experiments. Mobile phase used 0.05% […] water and acetonitrile (10:90) with a flow rate of 0.6 ml/minute. The injection volume was kept as 10 μl.

[2] = both bounds given in nm, read-out: TrkA inhibitory activity in-vitro IC50
[3] = read-out: TrkA inhibition in-vitro IC50

Row | SMILES | IC50 (TrkA kinase; [2]) [µM] | half-life at 1 μM [1] [h] | IC50 (TrkA kinase; [3]) [µM]
1 | CC(C)(C)S(=O)(=O)NC(=O)c1cnn2ccc(N3CCCC3c3cc(F)cc4c3OCCO4)cc12 (single isomer, unassigned) [Example 50, N-(tert-butylsulfonyl)-5-(2-(7-fluoro-2,3-dihydrobenzo [b][1,4]dioxin-5-yl)pyrrolidin-1-yl)pyrazolo[1,5-a]pyridine-3-carboxamide] | 0.1 to 0.5 | > 1.33 | –
2 | COCCOc1ccc(F)cc1[C@H]1CCCN1c1ccn2ncc(C(=O)NS(=O)(=O)C(C)(C)C)c2c1 [Example 65, (R)-N-(tert-butylsulfonyl)-5-(2-(5-fluoro-2-(2-methoxyethoxy)phenyl)pyrrolidin-1-yl)pyrazolo [1,5-a]pyridine-3-carboxamide] | – | > 1.33 | ≤ 0.05
3 | CCN(C)S(=O)(=O)NC(=O)c1cnn2ccc(N3C[C@@H](F)C[C@@H]3c3cc(F)ccc3F)cc12 [Example 79, 5-((2R,4S)-2-(2,5-difluorophenyl)-4-fluoropyrrolidin-1-yl)-N-(N-ethyl-N-methylsulfamoyl) pyrazolo[1,5-a]pyridine-3-carboxamide] | – | > 1.33 | ≤ 0.05
4 | CC(C)(C)S(=O)(=O)NC(=O)c1cnn2ccc(N3CCC[C@@H]3c3cc(F)ccc3F)cc12 [Example 2, (R)-N-(tert-butylsulfonyl)-5-(2-(2,5-difluorophenyl)pyrrolidin-1-yl) pyrazolo[1,5-a]pyridine-3-carboxamide] | – | > 1.33 | ≤ 0.05
5 | CC(C)S(=O)(=O)NC(=O)c1cnn2ccc(N3CCC[C@@H]3c3cc(F)ccc3F)c(F)c12 [Example 75, (R)-5-(2-(2,5-difluorophenyl)pyrrolidin-1-yl)-4-fluoro-N-(isopropylsulfonyl)pyrazolo[1,5-a]pyridine-3-carboxamide] | 0.1 to 0.5 | > 1.33 | –
6 | CN(C)S(=O)(=O)NC(=O)c1cnn2ccc(N3CCC[C@@H]3c3cc(F)ccc3F)cc12 [Example 76, (R)-5-(2-(2,5-difluorophenyl)pyrrolidin-1-yl)-N—(N, N-dimethylsulfamoyl)pyrazolo[1,5-a]pyridine-3-carboxamide] | – | > 1.33 | ≤ 0.05
7 | O=C(NS(=O)(=O)c1ccc2c(c1)OCO2)c1cnn2ccc(N3CCC[C@@H]3c3cc(F)ccc3F)cc12 [Example 35, (R)-N-(benzo[d][1,3]dioxol-5-ylsulfonyl)-5-(2-(2,5-difluorophenyl)pyrrolidin-1-yl)pyrazolo[1,5-a]pyridine-3-carboxamide] | – | > 1.33 | 0.05 to 0.1
8 | CC(C)(C)S(=O)(=O)NC(=O)c1cnn2ccc(N3CCC[C@@H]3c3cc(F)ccc3OCC3CC3)cc12 [Example 46, (R)-N-(tert-butylsulfonyl)-5-(2-(2-(cyclopropylmethoxy)-5-fluorophenyl)pyrrolidin-1-yl)pyrazolo[1,5-a]pyridine-3-carboxamide] | – | > 1.33 | 0.05 to 0.1
9 | CC(C)(C)S(=O)(=O)NC(=O)c1cnn2ccc(N3CCC[C@@H]3c3cc(F)ccc3OC3CCOC3)cc12 (stereo partly drawn) [Example 59, N-(tert-butylsulfonyl)-5-((2R)-2-(5-fluoro-2-((tetrahydrofuran-3-yl)oxy)phenyl)pyrrolidin-1-yl)pyrazolo[1,5-a]pyridine-3-carboxamide] | – | > 1.33 | ≤ 0.05
10 | COc1ccc(S(=O)(=O)NC(=O)c2cnn3ccc(N4CCC[C@@H]4c4cc(F)ccc4F)cc23)cn1 [Example 26, (R)-5-(2-(2,5-difluorophenyl)pyrrolidin-1-yl)-N-((6-methoxypyridin-3-yl)sulfonyl) pyrazolo[1,5-a]pyridine-3-carboxamide] | – | > 1.33 | 0.05 to 0.1
11 | CC(C)(C)S(=O)(=O)NC(=O)c1cnn2ccc(N3C[C@@H](F)C[C@@H]3c3cc(F)ccc3F)cc12 (single isomer, unassigned) [Example 52] | – | > 1.33 | ≤ 0.05
12 | CC1OCCC1S(=O)(=O)NC(=O)c1cnn2ccc(N3CCC[C@@H]3c3cc(F)ccc3F)cc12 (stereo partly drawn) [Example 24, 5-((R)-2-(2,5-difluorophenyl)pyrrolidin-1-yl)-N-((2-methyltetrahydrofuran-3-yl)sulfonyl)pyrazolo[1,5-a] pyridine-3-carboxamide] | 0.1 to 0.5 | > 1.33 | –
13 | CCN(C)S(=O)(=O)NC(=O)c1cnn2ccc(N3CCC[C@@H]3c3cc(F)ccc3OC)cc12 [Example 91, (R)-N-(N-ethyl-N-methylsulfamoyl)-5-(2-(5-fluoro-2-methoxyphenyl)pyrrolidin-1-yl)pyrazolo[1,5-a]pyridine-3-carboxamide] | – | > 1.33 | ≤ 0.05
14 | CCN(C)S(=O)(=O)NC(=O)c1cnn2ccc(N3CCC[C@@H]3c3cc(F)ccc3F)cc12 [Example 77, (R)-5-(2-(2,5-difluorophenyl)pyrrolidin-1-yl)-N-(N-ethyl-N-methylsulfamoyl) pyrazolo[1,5-a]pyridine-3-carboxamide] | – | > 1.33 | ≤ 0.05
15 | CCOc1ccc(F)cc1[C@H]1CCCN1c1ccn2ncc(C(=O)NS(=O)(=O)C(C)(C)C)c2c1 [Example 45, (R)-N-(tert-butylsulfonyl)-5-(2-(2-ethoxy-5-fluorophenyl)pyrrolidin-1-yl)pyrazolo[1,5-a]pyridine-3-carboxamide] | – | > 1.33 | 0.05 to 0.1
16 | O=C(NS(=O)(=O)Cc1ccccc1)c1cnn2ccc(N3CCC[C@@H]3c3cc(F)ccc3F)cc12 [Example 40, (R)-N-(benzylsulfonyl)-5-(2-(2,5-difluorophenyl)pyrrolidin-1-yl)pyrazolo[1,5-a]pyridine-3-carboxamide] | – | > 1.33 | ≤ 0.05
17 | CC(C)(C)S(=O)(=O)NC(=O)c1cnn2ccc(N3CCC[C@@H]3c3cc(F)cc(OC(F)F)c3)cc12 [Example 43, (R)-N-(tert-butylsulfonyl)-5-(2-(3-(difluoromethoxy)-5-fluorophenyl)pyrrolidin-1-yl) pyrazolo[1,5-a]pyridine-3-carboxamide] | 0.1 to 0.5 | > 1.33 | –
18 | CCS(=O)(=O)NC(=O)c1cnn2ccc(N3CCC[C@@H]3c3cc(F)ccc3F)cc12 [Example 3, (R)-5-(2-(2,5-difluorophenyl)pyrrolidin-1-yl)-N-(ethylsulfonyl)pyrazolo[1,5-a]pyridine-3-carboxamide] | 0.1 to 0.5 | > 1.33 | –
19 | O=C(NS(=O)(=O)c1ccc(F)cc1)c1cnn2ccc(N3CCC[C@@H]3c3cc(F)ccc3F)cc12 [Example 1, (R)-5-(2-(2,5-difluorophenyl)pyrrolidin-1-yl)-N-((4-fluorophenyl)sulfonyl)pyrazolo[1,5-a]pyridine-3-carboxamide] | 0.1 to 0.5 | > 1.33 | –
20 | Cc1ccccc1S(=O)(=O)NC(=O)c1cnn2ccc(N3CCC[C@@H]3c3cc(F)ccc3F)cc12 [Example 39, (R)-5-(2-(2,5-difluorophenyl)pyrrolidin-1-yl)-N-(o-tolylsulfonyl)pyrazolo[1,5-a]pyridine-3-carboxamide] | – | > 1.33 | –
21 | O=C(NS(=O)(=O)c1ccc(N2CC[C@H](O)C2)nc1)c1cnn2ccc(N3CCC[C@@H]3c3cc(F)ccc3F)cc12 [Example 25, 5-((R)-2-(2,5-difluorophenyl)pyrrolidin-1-yl)-N-((6-((S)-3-hydroxypyrrolidin-1-yl)pyridin-3-yl)sulfonyl)pyrazolo[1,5-a] pyridine-3-carboxamide] | – | > 1.33 | ≤ 0.05
22 | CC1(S(=O)(=O)NC(=O)c2cnn3ccc(N4CCC[C@@H]4c4cc(F)ccc4F)cc23)CC1 [Example 38, (R)-5-(2-(2,5-difluorophenyl)pyrrolidin-1-yl)-N-((1-methylcyclopropyl)sulfonyl)pyrazolo[1,5-a] pyridine-3-carboxamide] | – | > 1.33 | –
23 | CC1(S(=O)(=O)NC(=O)c2cnn3ccc(N4C[C@@H](F)C[C@@H]4c4cc(F)ccc4F)cc23)CC1 [Example 74, 5-((2R,4S)-2-(2,5-difluorophenyl)-4-fluoropyrrolidin-1-yl)-N-((1-methylcyclopropyl)sulfonyl)pyrazolo[1,5-a]pyridine-3-carboxamide] | – | > 1.33 | ≤ 0.05
24 | N#Cc1cccc(S(=O)(=O)NC(=O)c2cnn3ccc(N4CCC[C@@H]4c4cc(F)ccc4F)cc23)c1 [Example 4, (R)-N-((3-cyanophenyl)sulfonyl)-5-(2-(2,5-difluorophenyl)pyrrolidin-1-yl)pyrazolo[1,5-a]pyridine-3-carboxamide] | – | > 1.33 | 0.05 to 0.1
25 | CCCS(=O)(=O)NC(=O)c1cnn2ccc(N3CCC[C@@H]3c3cc(F)ccc3F)cc12 [Example 10, (R)-5-(2-(2,5-difluorophenyl)pyrrolidin-1-yl)-N-(propylsulfonyl)pyrazolo[1,5-a] pyridine-3-carboxamide] | – | > 1.33 | ≤ 0.05
